Reference: a melting point compilation (Tetko et al.; mined from patent text by program, amines drawn as free bases though some values may be those of a salt)

`O=C(NCC(=O)N1CCCCC1)OCc1ccccc1` gave a melting point of 111 to 112 °C.
Work on `CCOC(=O)C1(O)C=CC(N=Nc2ccccc2)=CC1` (centres undefined) yielded a melting point of 153 to 154 °C.
Work on `Cn1nc(N)c2cc3ccc(O)cc3nc21` yielded a melting point of 288 to 290 °C.
`O=C(CN1CCC(Cc2ccccc2)CC1)Nc1ccc([N+](=O)[O-])cc1` showed a melting point of 126 to 128 °C.
With `Cc1cc(Cl)cc(C(=O)NCC2CCO2)c1NC(=O)c1cc(Br)nn1-c1ncccc1Cl` (centres undefined) the melting point was 95 to 97 °C.
With `CCOC(=O)c1c(CN(CC)CC)nc2sc3c(c2c1-c1ccc(OC)c(OC)c1)CCN(S(=O)(=O)c1ccccc1)C3` the melting point was 161 to 162 °C.
Work on `CN(CCCOc1ccc(CC2SC(=O)NC2=O)cc1)c1nc2ccccc2o1` (centres undefined) yielded a melting point of 171 to 173 °C.
For `COc1ccc2c3c(c(=O)oc2c1)CN(Cc1cccc(Cl)c1)CC3`, the melting point was 112 to 115 °C.
For `CN(c1ccc(Cl)cc1)S(=O)(=O)c1cccc(C(=O)Nc2ccc(Cl)cc2F)c1`, the melting point was 119 to 120 °C.
`O=C(O)CCCCN1C(=O)c2ccc(C(=O)O)cc2C1=O` gave a melting point of 223 °C.
With `NC(=O)c1csnc1-c1cccc(C(F)(F)F)c1` the melting point was 141 to 142 °C.
Compound `FC(F)(F)c1cc(N(Cc2ccsc2)Cc2ccccn2)cc(C(F)(F)F)c1Br` has a melting point of 58 to 59 °C.
In the case of `CCOC(=O)CCCNC(=O)c1cc(Br)no1`, the melting point was 72 to 73 °C.
Work on `CC(CN(C)C)C(C#N)(c1ccccc1)c1ccccc1` (single isomer, unassigned; (-)) yielded a melting point of 102 to 103 °C.
`CC(=O)c1cc([N+](=O)[O-])c(N)c2c1CCCC2` gave a melting point of 170 to 172 °C.
For `CSC(=NCc1cccc2ccccc12)NCC1CCN(S(=O)(=O)c2cccc3ccccc23)CC1`, the melting point was 111 to 113 °C.
Work on `COc1ccc(C(=O)C=Cc2ccccc2)cc1C=CC(=O)O` yielded a melting point of 204 °C.
In the case of `Cc1ccc(Cc2cnc(NCCCNc3ccccn3)[nH]c2=O)cn1`, the melting point was 163 to 165 °C.
For `Cc1ccc(NC(=O)c2ccc(CN3CCN(C)C(=O)C3)cc2)cc1Nc1nccc(-c2cccnc2)n1`, the melting point was 187 to 192 °C.
With `CCc1nn(CCN)c(CC)c1Cc1cc(C#N)cc(C#N)c1` the melting point was 100 to 105 °C.
For `COc1c(Cl)cc(NC(=O)OC(C)(C)C)cc1Cl`, the melting point was 115 to 116 °C.
With `C#CCS(=O)(=O)c1ccc(NC(C)=O)cc1` the melting point was 175 to 179 °C.
Work on `COc1ccccc1Nc1nc(N)nc2c(OC)cccc12` yielded a melting point of 243 to 244 °C.
Compound `Cc1ccccc1-c1ccc(C(=O)N2Cc3ccc(C(=O)NCCCc4ccccc4)n3Cc3ccccc32)cc1C` has a melting point of 183 to 184 °C.
`COC(=O)NCC1Cc2c(Cl)cc3c(c2O1)CCC3` (centres undefined) gave a melting point of 139 to 141 °C.
`CC(OC1CCCN(Cc2ncn[nH]2)C1c1ccccc1)c1cc(C(F)(F)F)cc(C(F)(F)F)c1` (centres undefined) gave a melting point of 182 to 183 °C.
Compound `C=C(CCCCCCCCCCCCCC)C(=O)O` has a melting point of 49.5 to 50 °C.
`COc1ccc(-c2cnc(SC(F)(F)C(F)F)nc2-c2ccc(OC)cc2)cc1` gave a melting point of 118 to 120 °C.
Work on `COc1ccc2nc(-c3ccc(C=C4C(=O)C5(C)CCC4C5(C)C)cc3)[nH]c2c1` (centres undefined) yielded a melting point of 138 to 142 °C.
`OC(Cc1nnn[nH]1)(Cn1cncn1)c1ccc(Cl)cc1Cl` (centres undefined) showed a melting point of 214 to 215 °C.
Compound `O=C(Nc1ccccc1)O[C@@H]1CN=C(c2cccs2)O[C@H]1c1ccccc1` (racemic) has a melting point of 98 °C.
For `O=C(CC(Cc1ccccc1)(C(=O)O)C(=O)O)c1cccc(C(F)(F)F)c1`, the melting point was 145 to 147 °C.
With `N#Cc1cccc(C2=Nc3cc(O)c(-c4cc(F)ccc4F)cc3NC(=O)C2)c1` the melting point was over 250 °C.
Compound `O=C1C(c2ccc(O)cc2)=C(Br)c2cc(O)ccc21` has a melting point of 245 °C.
Work on `CN(C)Cc1cc(C(=O)Nc2nc(-c3ccco3)c(C(=O)c3ccccc3)s2)ccn1` yielded a melting point of 205 to 209 °C.
`COc1ccc(OCc2ccc(C(=O)c3ccccc3)cc2)cc1OC` showed a melting point of 74 to 75 °C.
Compound `CCOP(=O)(Cc1ccc2nc(-c3ccc(OC)cc3)oc2c1)OCC` has a melting point of 86 to 88 °C.
With `COc1ccc(Cl)cc1-n1c(-c2ccc(C(F)(F)F)cc2)n[nH]c1=S` the melting point was 275 to 280 °C.
Work on `CC(=O)Nc1ccc(S(=O)(=O)N2CCN(c3c(F)cc4c(=O)c(C(=O)O)cn(C5CC5)c4c3F)CC2)cc1` yielded a melting point of 282 to 284 °C.
With `CCCCOc1c(N)c(=O)c1=O` the melting point was 166 to 168 °C.
`CCOC(=O)c1c(CN2CCNCC2)nc2cc(OC)c(OC)cc2c1-c1ccc(OC)c(OC)c1` showed a melting point of 192 to 193 °C.
With `COC1(c2nc3ccc(F)cc3s2)C=CC(=NS(=O)(=O)c2ccc(C)cc2)C=C1` (centres undefined) the melting point was 135 °C.
With `CC(C)n1nc(-c2c(-c3ccccc3)nn3ccc(Oc4ccncc4)cc23)ccc1=O` the melting point was 218 to 220 °C.
Work on `N=C(Nc1ccc(Cl)cc1)Nc1ncccc1OCc1c(Cl)cccc1Cl` yielded a melting point of 192 to 195 °C.
Compound `NC(c1ccccc1)c1ccc(OCCCOc2ccc(C(N)c3ccccc3)cc2)cc1` (centres undefined) has a melting point of 118 to 119 °C.
`FC(F)(F)c1cccc(-c2cnnn2-c2cc(Cl)ccc2OCc2nnn[nH]2)c1` showed a melting point of 181 to 184 °C.
With `C=C(OCC)c1cc(N)c(OC)c(C(=O)OC)n1` the melting point was 72 to 73 °C.
With `N#Cc1ccccc1-c1ccc(C(F)(F)F)c(Cl)c1` the melting point was 138 to 140 °C.
In the case of `CN(C)CCOc1ccc(/C(=C(\c2ccccc2)C(F)(F)F)c2ccccc2)cc1`, the melting point was 90 to 91 °C.
`Nc1nc2c(ncn2[C@H]2C=C[C@@H](O)CC2)c(=O)[nH]1` (racemic) showed a melting point of over 300 °C.
For `CC(=O)OC1CCC2(C)C(=CCC3C2CCC2(C)C3CC(OC(C)=O)C2OC(C)=O)C1` (centres undefined), the melting point was 127 to 129 °C.
`CC(C)(Cc1ccccc1)C(O)CCN1C(=O)NC(=O)C1CCCCCCC(=O)O` (centres undefined) gave a melting point of 115 °C.
For `Oc1ccccc1-c1cnc2cnc(-c3ccccc3O)nc2c1`, the melting point was 239 to 240 °C.
Work on `COc1ccc(F)cc1C(C)(C)CC(O)(Cc1ccc(C(C)=NO)cc1Cl)C(F)(F)F` (centres undefined) yielded a melting point of 136 to 138 °C.
With `CC(C)(C)OC(=O)N1CC2CN(C(N)=S)CC2C1` (centres undefined) the melting point was 188 to 190 °C.
Compound `O=C(O)c1cc(O)c(Cl)c(Cl)c1` has a melting point of 211 °C.
`Cc1nc2sc3ccccc3n2c1C(C)O` (centres undefined) showed a melting point of 173 to 174 °C.
In the case of `CC(C)(C)c1ccccc1C(O)(c1ccccc1)c1ncc[nH]1` (centres undefined), the melting point was 185 to 186 °C.
For `CCOc1c(C23OCC(C)(C)C2(C(C)(C)C)OO3)sc2ccc(O[Si](C)(C)C(C)(C)C)cc12` (centres undefined), the melting point was 106 to 107 °C.
`CSc1ccccc1C(=O)CBr` gave a melting point of 81 to 82 °C.
In the case of `CCOC(=O)CCc1cc(F)c(N2CCNCC2)nc1Nc1ccc(F)cc1F`, the melting point was 121 to 123 °C.
`Cn1c(=O)cc(-c2cccc(Cl)c2)c2cc(C(C)(c3ccc(Cl)cc3)n3ccnc3)ccc21` (centres undefined) showed a melting point of 120 °C.
`CCCN(CCC)c1ccc(Cl)nn1` showed a melting point of 49 to 51 °C.
`COc1cc2c(cc1OCc1ccccc1)[C@H](CO)OC2=O` showed a melting point of 126 to 128 °C.
With `CCOc1ccc(-c2nc3n(c2-c2ccc(OCC)cc2)CCS3)cc1` the melting point was 214 to 215 °C.
`CC(=O)Oc1c(C)cc2c(c1C)C(C)CN2C(C)=O` (centres undefined) gave a melting point of 128 to 130 °C.
Work on `CC(C)(C)OC(=O)c1nc2ccc(NCCCN3CCC(OC(c4ccccc4)c4ccccc4)CC3)nn2n1` yielded a melting point of 133 to 135 °C.
Work on `NCCCN1CC=C(c2ccc(Cl)cc2)CC1` yielded a melting point of 57 to 58 °C.
Work on `CC(C)(C)OC(=O)N1CCN(c2ccc(N)cc2)CC1` yielded a melting point of 95 to 96 °C.
Compound `NC(=O)Cc1ccc(-c2cnc3[nH]c(=O)n(CC4CCCCC4)c3n2)cc1` has a melting point of 272 to 274 °C.
For `CCN(CC)C(=O)c1ccoc1-c1ccc(Cl)cc1`, the melting point was 64 to 66 °C.
`COC(=O)c1ccccc1Nc1c(Cl)ccc(C)c1Cl` gave a melting point of 130 to 131 °C.
In the case of `COCc1c(-c2csc(C)n2)ncc2c1c1cc(OCc3ccccc3)ccc1n2S(=O)(=O)c1ccc(C)cc1`, the melting point was 173 to 175 °C.
`O=C(NC1CCc2cc3c(cc2C1)OCC3)C(F)(F)F` (centres undefined) gave a melting point of 131 °C.
`CC(C)Nc1cccnc1N1CCN(C(=O)c2ccc(C(=O)N3CCN(CC(O)CO)CC3)cc2)CC1` (centres undefined) gave a melting point of 158 °C.
Compound `Cc1c(NC(=O)c2ccc(OC[C@@H]3CCCO3)cc2)ccc2[nH]c(CNC3CCCC3)cc12` has a melting point of 191 to 192 °C.
In the case of `Nc1sccc1C(=O)c1cccc(C(F)(F)F)c1`, the melting point was 143 to 145 °C.
With `CCOC(=O)C(=CNc1ccccc1)C(=O)OCC` the melting point was 45 to 46 °C.
Work on `CCN(CC)CC(=O)Nc1ccc(NC(=O)Nc2ccc(N(CCCl)CCCl)cc2)cc1` yielded a melting point of 209 to 211 °C.
Work on `O=C1C2CCCC2=Nc2ccccc2N1Cc1cccc(OCc2ccccc2)c1` (centres undefined) yielded a melting point of 120 to 122 °C.
Work on `NC1N=C(Cl)C=C(Cl)N1c1c([N+](=O)[O-])cc(C(F)(F)F)c(Cl)c1[N+](=O)[O-]` (centres undefined) yielded a melting point of 199 to 200 °C.
Work on `CCCCc1cc2cc(O)c(Cl)c(Cl)c2s1` yielded a melting point of 35 °C.
`CC(C)c1cc(-c2ccc(F)cc2)n(-c2ncccn2)n1` showed a melting point of 102 to 103 °C.
Compound `CC(C)(C)CC(=O)Nc1ccc2oc3c(c2c1)CCCC3` has a melting point of 164 to 165 °C.
With `CCCCCCc1nc2c(N)nc3ccccc3c2n1CCCCNC(=O)Nc1ccccc1` the melting point was 170 to 172 °C.
Compound `N#Cc1c(OCC(F)(F)F)nc(CCO)nc1N1CCc2ccccc2CC1` has a melting point of 114 to 116 °C.
For `Nn1c(C(F)(F)F)cc(-c2ccc(C(F)(F)F)cc2)cc1=S`, the melting point was 156 °C.
With `CCOc1nsc(NC(=O)NC)c1C(N)=O` the melting point was 240 to 241 °C.
With `Cc1ccc([C@H]2Sc3cc(C)ccc3NC(=O)[C@H]2O)cc1` the melting point was 212 to 214 °C.
For `CCOC(=O)c1ccc(NCc2ccc(Cl)s2)cc1`, the melting point was 108 to 109 °C.
In the case of `Oc1ccc2c(-c3ccccc3O)noc2c1`, the melting point was 164 to 166 °C.
`CC(C)N(CC(O)COc1ccccc1C(=O)Nc1cccc2[nH]ccc12)C(C)C` (centres undefined) gave a melting point of 160 °C.
In the case of `CNC(=O)CCc1c(-c2ccccc2)n(C)c(=O)c2ccccc12`, the melting point was 185 to 186 °C.
For `COc1cc(Nc2c(C#N)cnc3cc4cc(OC)c(OCCN5CCC(O)CC5)cc4cc23)c(Cl)cc1Cl`, the melting point was 150 to 160 °C.
`CC(=O)OC(Cn1cncn1)c1ccc(Cl)cc1Cl` (centres undefined) gave a melting point of 92 to 96 °C.
In the case of `COc1cc2ccccc2cc1O`, the melting point was 108 to 109 °C.
In the case of `COc1cc(-c2nc(-c3ccc(N(C)C)cc3)c(C)s2)cc(OC)c1O`, the melting point was 230 to 233 °C.
`O=C1COc2cc(Oc3ccc(O)cc3)ccc2N1` showed a melting point of 250 to 251 °C.
In the case of `COc1ccc(S(=O)(=O)N(Cc2ccccc2)c2c(C(=O)O)cnc3c2c(C)nn3-c2ccccc2)cc1`, the melting point was 207 to 210 °C.
